Assay results reported in patent EP0343398A2, “7-Substituted quinolone- and naphthyridinecarboxylic acid derivatives” (BAYER AG, priority 1988, dated 1989).
Converted amounts (≈) assume the structure as drawn. One block for each molecule: values may come before it.

How the values were obtained:
Test in all cases: MIC determination (MHK-Werte), comparison with Ciprofloxacin
Format in all cases: cell-based
Pseudo-monas Ellsworth = tested on: Pseudo-monas Ellsworth
Enterco. 9790 = tested on: Enterco. 9790
E.coli Neumann = conditions: for MIC: Escherichia coli
Pseudo-monas Walter = tested on: Pseudo-monas Walter
Enteroc. 27101 = tested on: Enteroc. 27101
Staph. 1756 = tested on: Staph. 1756
Staph. 133 = tested on: Staph. 133
Staph. FK422 = tested on: Staph. FK422

Compound: CCOC(=O)c1cn(C2CC2)c2cc(-c3ccccc3)c(F)cc2c1=O [Beispiel 1, 1-Cyclopropyl-6-fluor-1,4-dihydro-4-oxo-7-phenyl-3-chinolincarbonsäure-ethylester]
MHK-Werte (Pseudo-monas Ellsworth): 0,25 µg/ml
MHK-Werte (Enterco. 9790): 0,125 µg/ml
MHK-Werte (E.coli Neumann): 0,062 µg/ml
MHK-Werte (Pseudo-monas Walter): 0,5 µg/ml
MHK-Werte (Enteroc. 27101): 0,062 µg/ml
MHK-Werte (Staph. 1756): 0,062 µg/ml
MHK-Werte (Staph. 133): 0,062 µg/ml
MHK-Werte (Staph. FK422): ≤0,015 µg/ml

Compound: O=C(O)c1cn(C2CC2)c2cc(-c3ccc4ccccc4c3)c(F)cc2c1=O [Beispiel 14]
MIC (Pseudo-monas Ellsworth): 0.25 µg/mL (≈ 0.67 µM)
MIC (E.coli Neumann): 0.062 µg/mL (≈ 0.166 µM)
MIC (Pseudo-monas Walter): 1 µg/mL (≈ 2.68 µM)

MIC (E.coli Neumann): ≤ 0.015 µg/mL
MIC (Pseudo-monas Walter): 0.5 µg/mL (≈ 1.54 µM)
Compound: O=C(O)c1cn(C2CC2)c2cc(-c3cccnc3)c(F)cc2c1=O [Beispiel 16]

MIC (E.coli Neumann): ≤ 0.015 µg/mL
Compound: NCc1ccc(-c2cc3c(cc2F)c(=O)c(C(=O)O)cn3C2CC2)cc1 [Beispiel 20, 7-(4-Aminomethylphenyl)-1-cyclopropyl-6-fluor-1,4-dihydro-4-oxo-3-chinolincarbonsäure]

Compound: O=C(O)c1cn(C2CC2)c2cc(N3CCNCC3)c(F)cc2c1=O [Ciprofloxacin, reference compound]
MIC (Enterco. 9790): 0.25 µg/mL (≈ 0.754 µM)
MIC (E.coli Neumann): ≤ 0.015 µg/mL
MIC (Pseudo-monas Walter): 0.25 µg/mL (≈ 0.754 µM)
MIC (Enteroc. 27101): 0.25 µg/mL (≈ 0.754 µM)
MIC (Staph. 1756): 0.25 µg/mL (≈ 0.754 µM)
MIC (Staph. 133): 0.25 µg/mL (≈ 0.754 µM)
MIC (Staph. FK422): 0.25 µg/mL (≈ 0.754 µM)
